Experimental data reported in ChEMBL document CHEMBL4765419, “Design, synthesis and bioactivity evaluation of novel arylalkene-amide derivatives as dual-target antifungal inhibitors” (Eur J Med Chem, 2020).
Calls of active or inactive are those of the source. No cut-off for these calls is given here.

Assays:
Candida albicans [1] = assay: Antifungal activity against fluconazole-resistant Candida albicans 901 assessed as inhibition of microbial growth by two fold broth microdilution method; assay type: functional
Candida albicans [2] = assay: Antifungal activity against Candida albicans assessed as inhibition of microbial growth by two fold broth microdilution method; assay type: functional
Candida albicans SC5314 [3] = assay: Inhibition of CYP51 in Candida albicans ATCC SC5314 assessed as eburicol level at 4 ug/ml incubated for 16 hrs by LC/MS analysis (reference value: 4.67 %); parameters: scale not given: the % may be the effect or the level left; settings: dose 4.0 µg/ml
Pichia kudriavzevii = assay: Antifungal activity against Candida krusei assessed as inhibition of microbial growth by two fold broth microdilution method; assay type: functional
Candida albicans [4] = assay: Antifungal activity against fluconazole-resistant Candida albicans 17# assessed as inhibition of microbial growth by two fold broth microdilution method; assay type: functional
Candida albicans SC5314 [5] = assay: Inhibition of CYP51 in Candida albicans ATCC SC5314 assessed as squalene level at 4 ug/ml incubated for 16 hrs by LC/MS analysis (reference value: 2.25 %); parameters: scale not given: the % may be the effect or the level left; settings: dose 4.0 µg/ml
Candida albicans [6] = assay: Antifungal activity against Candida albicans ATCC SC5314 assessed as decrease in fungal cell density by polarizing microscopy; assay type: functional, organism-based
Aspergillus fumigatus = assay: Antifungal activity against Aspergillus fumigatus assessed as inhibition of microbial growth by two fold broth microdilution method; assay type: functional
Candida albicans SC5314 [7] = assay: Inhibition of CYP51 in Candida albicans ATCC SC5314 assessed as unidentified sterol level at 4 ug/ml incubated for 16 hrs by LC/MS analysis (reference value: 7.03 %); parameters: scale not given: the % may be the effect or the level left; settings: dose 4.0 µg/ml
Nakaseomyces glabratus = assay: Antifungal activity against Candida glabrata assessed as inhibition of microbial growth by two fold broth microdilution method; assay type: functional
Candida albicans [8] = assay: Antifungal activity against fluconazole-resistant Candida albicans 904 assessed as inhibition of microbial growth by two fold broth microdilution method; assay type: functional
Candida albicans [9] = assay: Antifungal activity against fluconazole-resistant Candida albicans CaR assessed as inhibition of microbial growth by two fold broth microdilution method; assay type: functional
Candida albicans SC5314 [10] = assay: Inhibition of CYP51 in Candida albicans ATCC SC5314 assessed as lanosterol level at 4 ug/ml incubated for 16 hrs by LC/MS analysis (reference value: 6.62 %); parameters: scale not given: the % may be the effect or the level left; settings: dose 4.0 µg/ml
Candida tropicalis = assay: Antifungal activity against Candida tropicalis assessed as inhibition of microbial growth by two fold broth microdilution method; assay type: functional
Candida albicans SC5314 [11] = assay: Inhibition of CYP51 in Candida albicans ATCC SC5314 assessed as ergosterol level at 4 ug/ml incubated for 16 hrs by LC/MS analysis (reference value: 79.43 %); parameters: scale not given: the % may be the effect or the level left; settings: dose 4.0 µg/ml
Candida albicans [12] = assay: Antifungal activity against fluconazole-resistant Candida albicans 632 assessed as inhibition of microbial growth by two fold broth microdilution method; assay type: functional

OC(Cn1cncn1)(Cn1cncn1)c1ccc(F)cc1F [FLUCONAZOLE]
MIC (Candida albicans [1]): > 16 µg/mL
MIC (Candida albicans [2]): 0.25 µg/mL
Activity (Candida albicans SC5314 [3]): 65.5%
MIC (Pichia kudriavzevii): 1 µg/mL
MIC (Candida albicans [4]): > 16 µg/mL
Activity (Candida albicans SC5314 [5]): 3.68%
Activity (Candida albicans [6]): Active
MIC (Aspergillus fumigatus): > 16 µg/mL
Activity (Candida albicans SC5314 [7]): 9.26%
MIC (Nakaseomyces glabratus): 0.5 µg/mL
MIC (Candida albicans [8]): > 16 µg/mL
MIC (Candida albicans [9]): > 16 µg/mL
Activity (Candida albicans SC5314 [10]): 13.9%
MIC (Candida tropicalis): 0.5 µg/mL
Activity (Candida albicans SC5314 [11]): 7.62%
MIC (Candida albicans [12]): > 16 µg/mL
